Results: patent publication US9399623B2, “Quinoline derivatives and their use in neurodegenerative diseases” (Merck Patent GmbH, priority 2014, dated 2016)

How the values were obtained:
P2X7 [1] = molecular target: T1, P2X7 (Homo sapiens, UniProt Q99572); assay: IL-1β release assay in THP-1 cells (sandwich ELISA); type: cell-based; design: release of mature IL-1β in the culture medium of THP-1 cells; endogenous in cells; host or cells: THP-1 cells (PMA-differentiated, LPS-primed); conditions: PMA, LPS primed, stimulated with 0.8 mM BzATP, mature IL-1β release, read-out: hTHP-1/IL-ib IC50
T1 sequence (Q99572 1-595): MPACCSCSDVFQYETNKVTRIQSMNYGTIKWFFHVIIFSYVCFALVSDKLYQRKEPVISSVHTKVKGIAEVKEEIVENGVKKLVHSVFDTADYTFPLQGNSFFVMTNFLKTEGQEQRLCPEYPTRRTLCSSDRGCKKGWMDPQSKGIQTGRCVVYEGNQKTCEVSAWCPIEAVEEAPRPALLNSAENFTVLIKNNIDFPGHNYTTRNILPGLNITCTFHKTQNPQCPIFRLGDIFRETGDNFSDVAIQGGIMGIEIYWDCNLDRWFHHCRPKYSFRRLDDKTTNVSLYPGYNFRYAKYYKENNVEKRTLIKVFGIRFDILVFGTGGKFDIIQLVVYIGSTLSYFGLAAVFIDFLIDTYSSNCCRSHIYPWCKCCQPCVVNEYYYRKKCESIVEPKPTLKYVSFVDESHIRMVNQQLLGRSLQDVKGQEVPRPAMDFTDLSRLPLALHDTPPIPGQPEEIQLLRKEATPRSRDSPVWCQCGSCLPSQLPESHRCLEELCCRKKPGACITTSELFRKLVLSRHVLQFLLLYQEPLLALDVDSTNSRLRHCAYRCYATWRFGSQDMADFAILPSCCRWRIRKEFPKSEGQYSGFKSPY
Description: The activation of P2X7 by ATP leads to a fast transient activation of cells resulting in influx of Ca^2+ followed by conversion of pro-IL-1β to active IL-1β. The functional activity of P2X7 compounds was measured by the release of mature IL-1β in the culture medium of THP-1 cells, detected by sandwich ELISA. Cells were maintained in complete growth medium (RPMI 1640+10% HI-FCS+2 mM L-glutamine+1×PS). […] THP-1 cells were harvested from the flask in 50 ml by centrifugation for 3 min at 100 g. The cells were resuspended to 2×10^5 cells/ml in medium supplemented with 0.5 μM PMA and incubated. The cells were washed and resuspended to 1.5×10^5 cells/ml in medium complemented with 10 ng/ml LPS, and the cells were primed for 4 h at 37° C., 5% CO2. After addition of 20 μL of prediluted test compounds, blank, standard and control reagents, cells were incubated for a further 20 min at 37° C. and stimulated with 0.8 mM BzATP for 30 minutes. The cells were centrifuged, supernatant was collected and the presence of mature IL-1β was detected using Dual human IL-1b kit following manufacturer's instruction. The tetrahydrobenzodiazepine analogs effectively modulated the activity of P2X7 in the cells as measured by the levels of pro-inflammatory cytokine IL-1β, which is released by the activation of P2X7 receptor.

P2X7 [2] = molecular target: T1, P2X7; assay: Pore permeation assay (YO PRO dye uptake, BzATP-induced); type: cell-based; design: expressed in transfected cells; host or cells: HEK293; conditions: HEK293 transfected with human P2X7 receptor; YO PRO dye 1 uM, BzATP 10 uM; read-out: hP2X7 IC50
Description: Agonist-induced pore formation was determined by measuring cellular uptake of YO PRO fluorescence dye in HEK293 transfected with human P2X7 receptor. A HEK293 cell over expressing human P2X7 was harvested using HQTase reagent to detach the cells from T75 cm flask. The harvested cells are centrifuged @ 1200 rpm for 5 min at room temperature. The viability of cells was determined by Trypan blue dye and the cells are plated @ 10,000 cell/well in 50 ul volume in a 384 W BD Poly lysine coated plate and incubated overnight at 37 C. After overnight incubation, the culture medium was replaced with 35 ul/well assay buffer (5 mM KCl, 0.1 mM CaCl2, 5 mM Glucose, 10 mM HEPES buffer pH7.4 containing 125 mM NaCl. The serial dilution of compounds was performed using Bravo liquid handling instrument and the compounds were added using Bravo to the cell assay plate starting at 2.5 uM with three dilutions for 10 points. The positive control inhibitor compound was added to column 23. The plate was shaken slowly on a plate shaker for 10 seconds. The cells were incubated with the compound for 20 minutes at room temperature. After the incubation period, YO PRO dye (1 uM) along with BzATP (10 uM) were added to cells at 10 ul/well. The plate was centrifuged at 1000 rpm for 5 seconds and incubated at room temperature for 30 minutes. The uptake of YO PRO dye into the cells was measured using Envision Fluorescence plate reader instrument (Perkin Elmer).

Row | SMILES | IC50 (P2X7 [1]) [nM] | IC50 (P2X7 [2]) [nM]
1 | O=C(NCC1CCCC(F)(F)C1)c1c(Cl)ccc2nc(N3CC[C@@H](F)C3)ccc12 (stereo partly drawn) [Compound 1, 6-Chloro-2-((R)-3-fluoropyrrolidin-1-yl)-quinoline-5-carboxylic acid (3,3-difluoro-cyclohexylmethyl)-amide] | 10 to 100 | < 10
2 | C[C@H]1CCC[C@@](O)(CNC(=O)c2c(Cl)ccc3nc(N4CCCC4)ccc23)C1 [Compound 2, 6-Chloro-2-pyrrolidin-1-yl-quinoline-5-carboxylic acid ((1S,3S)-1-hydroxy-3-methyl-cyclohexylmethyl)-amide] | – | < 10
3 | O=C(NCC1CCCC(F)(F)C1)c1c(Cl)ccc2nc(N3CC[C@H](F)C3)ccc12 (stereo partly drawn) [Compound 3, 6-Chloro-2-((S)-3-fluoropyrrolidin-1-yl)-quinoline-5-carboxylic acid (3,3-difluoro-cyclohexylmethyl)-amide] | 101 to 500 | < 10
4 | C[C@@H]1CCC[C@](O)(CNC(=O)c2c(Cl)ccc3nc(N4CC[C@H](N(C)C)C4)ccc23)C1 [Compound 4, 6-Chloro-2-((S)-3-dimethylamino-pyrrolidin-1-yl)-quinoline-5-carboxylic acid ((1R,3R)-1-hydroxy-3-methyl-cyclohexylmethyl)-amide] | < 10 | < 10
5 | C[C@@H]1CCC[C@](O)(CNC(=O)c2c(Cl)ccc3nc(N4CC[C@@H](F)C4)ccc23)C1 [Compound 8, 6-Chloro-2-(3-(R)-fluoropyrrolidin-1-yl)-quinoline-5-carboxylic acid ((1R,3R)-1-hydroxy-3-methyl-cyclohexylmethyl)-amide] | 10 to 100 | < 10
6 | CC1CCCC(O)(CNC(=O)c2c(Cl)ccc3nc(N4CC[C@@H](N(C)C)C4)ccc23)C1 (stereo partly drawn) [Compound 14] | – | < 10
7 | C[C@@H]1CCC[C@](O)(CNC(=O)c2c(Cl)ccc3nc(N4CCCC4)ccc23)C1 [Compound 16, 6-Chloro-2-pyrrolidin-1-yl-quinoline-5-carboxylic acid ((1R,3R)-1-hydroxy-3-methyl-cyclohexylmethyl)-amide] | – | < 10
8 | O=C(NCC1CCC(F)(F)CC1)c1c(Cl)ccc2nc(C3CCCC3)ccc12 [Compound 43, 6-Chloro-2-cyclopentyl-quinoline-5-carboxylic acid (4,4-difluoro-cyclohexylmethyl)-amide] | – | 10 to 100
9 | O=C(NCC1CCC(F)(F)CC1)c1c(Cl)ccc2nc(C3CCNCC3)ccc12 [Compound 53, 6-Chloro-2-piperidin-4-yl-quinoline-5-carboxylic acid (4,4-difluorocyclohexylmethyl)-amide] | – | 10 to 100
10 | O=C(NCC1CCC(F)(F)CC1)c1c(Cl)ccc2nc(N3CCC(O)C3)ccc12 (stereo not drawn) [Compound 57, 6-Chloro-2-(3-hydroxy-pyrrolidin-1-yl)-quinoline-5-carboxylic acid (4,4-difluoro-cyclo hexylmethyl)-amide] | – | 10 to 100
11 | O=C1C=C(c2ccc3c(C(=O)NCC4CCC(F)(F)CC4)c(Cl)ccc3n2)CC1 [Compound 72] | – | 10 to 100
12 | CN(C)C(=O)CCNc1ccc2c(C(=O)NCC3CCC(F)(F)CC3)c(Cl)ccc2n1 [Compound 82, 6-Chloro-2-(2-dimethylcarbamoyl-ethylamino)-quinoline-5-carboxylic acid (4,4-difluoro-cyclo hexyl methyl)-amide] | – | 101 to 500
13 | O=C(O)CCNc1ccc2c(C(=O)NCC3CCC(F)(F)CC3)c(Cl)ccc2n1 [Compound 83, 3-{6-Chloro-5-[(4,4-difluorocyclohexylmethyl)-carbamoyl]-quinolin-2-ylamino}-propionic acid] | – | > 1000

Other lines, results leading:

Row | IC50 (P2X7 [1]) [nM] | IC50 (P2X7 [2]) [nM] | SMILES
14 | 10 to 100 | < 10 | C[C@@H]1CCC[C@](O)(CNC(=O)c2c(Cl)ccc3nc(N4CCC(F)C4)ccc23)C1 (stereo partly drawn) [Compound 5, 6-Chloro-2-(3-fluoropyrrolidin-1-yl)-quinoline-5-carboxylic acid ((1R,3R)-1-hydroxy-3-methyl-cyclohexylmethyl)-amide]
15 | 10 to 100 | < 10 | C[C@@H]1CCC[C@](O)(CNC(=O)c2c(Cl)ccc3nc(N4CCC(N(C)C)C4)ccc23)C1 (stereo partly drawn) [Compound 6, 6-Chloro-2-(3-dimethylamino-pyrrolidin-1-yl)-quinoline-5-carboxylic acid ((1R,3R)-1-hydroxy-3-methyl-cyclohexylmethyl)-amide]
16 | – | < 10 | C[C@H]1CCC[C@@](O)(CNC(=O)c2c(Cl)ccc3nc(C4CCCC4)ccc23)C1 [Compound 7, 6-Chloro-2-cyclopentyl-quinoline-5-carboxylic acid ((1S,3S)-1-hydroxy-3-methyl-cyclohexylmethyl)-amide]
17 | 10 to 100 | < 10 | C[C@@H]1CCC[C@](O)(CNC(=O)c2c(Cl)ccc3nc(N4CC[C@H](F)C4)ccc23)C1 [Compound 9, 6-Chloro-2-(3-(S)-fluoropyrrolidin-1-yl)-quinoline-5-carboxylic acid ((1R,3R)-1-hydroxy-3-methyl-cyclohexylmethyl)-amide]
18 | – | < 10 | C[C@@H]1CCC[C@](O)(CNC(=O)c2c(Cl)ccc3nc(C4CCCC4)ccc23)C1 [Compound 15, 6-Chloro-2-cyclopentyl-quinoline-5-carboxylic acid ((1R,3R)-1-hydroxy-3-methyl-cyclohexylmethyl)-amide]
19 | – | 10 to 100 | C[C@@H]1CCC[C@](O)(CNC(=O)c2c(Cl)ccc3nc(N4CC[C@@H](N(C)C)C4)ccc23)C1 [Compound 22, 6-Chloro-2-((R)-3-dimethylamino-pyrrolidin-1-yl)-quinoline-5-carboxylic acid ((1R,3R)-1-hydroxy-3-methyl-cyclohexylmethyl)-amide]
20 | – | 10 to 100 | CC(C)(C)OC(=O)N1CCC(c2ccc3c(C(=O)NCC4CCC(F)(F)CC4)c(Cl)ccc3n2)CC1 [Compound 71, 4-{6-Chloro-5-[(4,4-difluoro-cyclohexylmethyl)-carbamoyl]-quinolin-2-yl}-piperidine-1-carboxylic acid tert-butyl ester]
21 | – | 101 to 500 | COCCCNc1ccc2c(C(=O)NCC3CCC(F)(F)CC3)c(Cl)ccc2n1 [Compound 77, 6-Chloro-2-(3-methoxy-propylamino)-quinoline-5-carboxylic acid (4,4-difluoro-cyclohexyl methyl)-amide]
22 | – | 101 to 500 | O=C(NCC1CCC(F)(F)CC1)c1c(Cl)ccc2nc(N3CCCC(C(=O)O)C3)ccc12 (stereo not drawn) [Compound 79, 1-{6-Chloro-5-[(4,4-difluoro-cyclohexylmethyl)-carbamoyl]-quinolin-2-yl}-piperidine-3-carboxylic acid]
23 | – | 101 to 500 | CCOC(=O)CCNc1ccc2c(C(=O)NCC3CCC(F)(F)CC3)c(Cl)ccc2n1 [Compound 81, 3-{6-Chloro-5-[(4,4-difluoro-cyclohexylmethyl)-carbamoyl]-quinolin-2-ylamino}-propionic acid ethyl ester]
